We go through 17 compounds from patent US10711006B2, “Selective Bruton's tyrosine kinase inhibitor and use thereof” (HANGZHOU HERTZ PHARMACEUTICAL CO., LTD., priority 2016, dated 2020).

The target of data set [1] is BTK Kinase (Homo sapiens (Human), UniProt Q06187). Put plainly: In-vitro Btk kinase inhibitory activity assay. Format: biochemical. The procedure: In-Vitro Btk Kinase Inhibitory Activity Assay for Compounds of the Present Invention:
10 μL of the 50× drug stock solution was added to a 96-well plate and then 90 μL of a 1× Kinase Buffer was added and the 96-well plate was shaken for 10 minutes on a shaker. From each well of the 96-well plate, 5 μL of the drug solution was taken and then transferred to a 384-well plate which was provided with 2 duplicate wells.
Preparation of a 2.5× Kinase Buffer: an enzyme was added to the 1× kinase base buffer.
Prepare a 2.5× oligopeptide solution: FAM-labeled oligopeptide and ATP were added to the 1× kinase base buffer.
10 μL of the 2.5× Kinase Buffer was added to the 384-well plate loaded with 5 μL of the drug solution and incubation was then carried out for 10 minutes at room temperature. 10 μL of the 2.5× oligopeptide solution was added to the 384-well plate and incubation was then carried out for 1 hour at 28° C. The reaction was stopped by adding 25 μL of a stop buffer. The readings were recorded and the inhibition rate of the compound on the enzyme was calculated. The IC50 of BTK kinase was calculated by fitting.

A short description of data set [2]: Oral pharmacokinetic experiment in SD rats. Format: in vivo. The procedure: SD rats were used as experimental animals and were subjected to intragastric administration in a dose of 10 mg/kg and tail-vein intravenous injection in a dose of 2 mg/kg. The tail-vein blood sampling time points in the intragastric administration were 0.17, 0.33, 0.5, 1, 1.5, 2, 4, 6, 8, 12, and 24 hours; the blood sampling time points in the intravenous administration were 0.05, 0.1, 0.17, 0.5, 1, 2, 4, 6, 8, 12, and 24 hours. 0.3 ml of whole blood was taken, and 0.1 ml of plasma after centrifugation was taken and analyzed by LC-MS.

For data set [3], the system named is human lung cancer cell (A549). Description: In-vitro tumor cell proliferation inhibition (CCK-8), A549. To be noted: A549, 72 h, read-out: Tumor cell proliferation inhibitory activity (IC50, μM) A549.
Method: The in-vitro antitumor activity assay was carried out on the synthesized compound by using different solid tumors and leukemia cell lines:
Cell lines: human lung cancer cell (A549), human mantle cell lymphoma (MINO), diffuse giant B-cell lymphoma (OCI-LY10), and human diffuse large B lymphoma (TMD-8).
Preparation method of the drug: the drug was dissolved in DMSO to make a 10 mM stock solution, and then the stock solution was diluted in a certain ratio to obtain 5 different concentrations (test concentration 100×). In-vitro culture of tumor cells:
The tumor cells A549, MINO, OCI-LY10, and TMD-8 were seeded in a 96-well plate at 4000 cells/200 μL/well and then incubated overnight at 37° C. in a 5% CO2 cell culture incubator. 2 μL of the compound was added to each well to final concentrations of 50 μM, 10 μM, 2 μM, 0.4 μM, and 0.08 μM and then incubated for 72 hours at 37° C. in a 5% CO2 cell incubator, with DMSO (2%) as a control group. […] Wells loaded with the corresponding amount of cell culture fluid the and CCK-8 solution but no cells were considered as blank controls. The absorbance (OD value) was measured at 450 nm using a microplate reader, and the obtained data was used to calculate IC50.
The test system of data set [4] is human mantle cell lymphoma (MINO). Description: In-vitro tumor cell proliferation inhibition (CCK-8), MINO. To be noted: 72 h, read-out: Tumor cell proliferation inhibitory activity (IC50, μM) MINO.
For data set [5], the system named is human diffuse large B lymphoma (TMD-8). Put plainly: In-vitro tumor cell proliferation inhibition (CCK-8), TMD-8. As to conditions: TMD8, 72 h, read-out: Tumor cell proliferation inhibitory activity (IC50, nM) TMD-8.
For data set [6], the system named is diffuse giant B-cell lymphoma (OCI-LY10). Put plainly: In-vitro tumor cell proliferation inhibition (CCK-8), OCI-LY10. To be noted: Homo sapiens, OCI-Ly10, 72 h, read-out: Tumor cell proliferation inhibitory activity (IC50, nM) OCI-LY10.
For data set [7], the target named is hERG potassium channel (Homo sapiens (Human), UniProt Q12809). Description: hERG potassium channel inhibitory activity, manual patch clamp in CHO cells. To be noted: CHO cells stably expressing hERG, whole-cell patch clamp. Type of data set: cell-based. How it is done:
The cells used in this experiment were CHO cell lines transfected with HergCdna and stably expressing Herg channels (supplied by Sophion Bioscience, Denmark). The cells were cultured in a medium containing the following components (all from Invitrogen): Ham's F12 medium, 10% (v/v) inactivated fetal bovine serum, 100 μg/ml hygromycin B, 100 μg/ml Geneticin. […] 24 to 48 hours before an electrophysiological experiment, CHO Herg cells were transferred to circular slides placed in the culture dishes and grow with the same culture liquid under the same culture conditions as above. The density of CHO Herg cells on each circular slide was required to reach such a value that most cells were independent and stand alone.
2. Treatment and Dilution of a Compound
Before the test, the compound was first diluted with DMSO at gradient to make stock solutions with concentrations of 10, 3, 1, 0.3 and 0.1 Mm and the stock solutions were then diluted with extracellular fluid to a final Mm test concentration. Except that the DMSO concentration in the 30 Mm compound test solution was 0.3%, the final concentration of DMSO in each of the compound solutions with other concentrations was 0.1%. The test concentration of a positive control Cisapridewas 0.1 Mm. All compound solutions were conventionally sonicated and shaken for 5 to 10 minutes to ensure complete dissolution of the compound.
3. Electrophysiological Recording System and Data Analysis
This experiment uses a manual patch clamp system (HEKA EPC-10 signal amplifier and digital conversion system, purchased from HEKA Electronics, Germany) for the recording of whole cell currents. The circular slides with CHO Herg cells growing on the surfaces were placed in an electrophysiological recording slot under an inverted microscope. The extracellular fluid was used for continuous perfusion in the recording slot (approximately lml per minute). The experimental procedure uses a conventional whole-cell patch clamp current recording technique. Unless otherwise stated, the experiment was carried out at regular room temperature ([…]). The cells were clamped at a voltage of −80 Mv. The cell clamp voltage was depolarized to +20 Mv to activate the Herg potassium channel, and 5 seconds later, it was clamped to −50 Mv to eliminate inactivation and generate tail current. The peak of the tail current was used as the value of the Herg current. After the hERG potassium current recorded in the above step was stabilized under the continuous extracellular fluid perfusion in the recording slot, the drug to be tested can be superimposed to the perfusion until the inhibitory effect of the drug on the hERG current reaches a steady state. Generally, the criterion for determine whether or not the stable state was reached was that the recent three consecutive current recording lines were coincident. After the steady state was reached, extracellular fluid perfusion was carried out for flushing until the hERG current returns to the magnitude before the drug was added. One cell may be used for testing one or more drugs, or multiple concentrations of the same drug, and flushing with extracellular fluid was carried out between tests of different drugs. Cisapride (purchased from Sigma) was used in the experiment as a positive control to ensure that the cells used were of normal quality. The test data was analyzed by data analysis software provided by HEKA Patchmaster, Microsoft Excel and Graphpad Prism.
In general terms: hERG is a cardiac potassium channel; its block is linked to QT prolongation.

[8] abbreviates: oral (intragastric) 10 mg/kg, mean n = 3.

Chain of hERG potassium channel (Q12809 whole entry): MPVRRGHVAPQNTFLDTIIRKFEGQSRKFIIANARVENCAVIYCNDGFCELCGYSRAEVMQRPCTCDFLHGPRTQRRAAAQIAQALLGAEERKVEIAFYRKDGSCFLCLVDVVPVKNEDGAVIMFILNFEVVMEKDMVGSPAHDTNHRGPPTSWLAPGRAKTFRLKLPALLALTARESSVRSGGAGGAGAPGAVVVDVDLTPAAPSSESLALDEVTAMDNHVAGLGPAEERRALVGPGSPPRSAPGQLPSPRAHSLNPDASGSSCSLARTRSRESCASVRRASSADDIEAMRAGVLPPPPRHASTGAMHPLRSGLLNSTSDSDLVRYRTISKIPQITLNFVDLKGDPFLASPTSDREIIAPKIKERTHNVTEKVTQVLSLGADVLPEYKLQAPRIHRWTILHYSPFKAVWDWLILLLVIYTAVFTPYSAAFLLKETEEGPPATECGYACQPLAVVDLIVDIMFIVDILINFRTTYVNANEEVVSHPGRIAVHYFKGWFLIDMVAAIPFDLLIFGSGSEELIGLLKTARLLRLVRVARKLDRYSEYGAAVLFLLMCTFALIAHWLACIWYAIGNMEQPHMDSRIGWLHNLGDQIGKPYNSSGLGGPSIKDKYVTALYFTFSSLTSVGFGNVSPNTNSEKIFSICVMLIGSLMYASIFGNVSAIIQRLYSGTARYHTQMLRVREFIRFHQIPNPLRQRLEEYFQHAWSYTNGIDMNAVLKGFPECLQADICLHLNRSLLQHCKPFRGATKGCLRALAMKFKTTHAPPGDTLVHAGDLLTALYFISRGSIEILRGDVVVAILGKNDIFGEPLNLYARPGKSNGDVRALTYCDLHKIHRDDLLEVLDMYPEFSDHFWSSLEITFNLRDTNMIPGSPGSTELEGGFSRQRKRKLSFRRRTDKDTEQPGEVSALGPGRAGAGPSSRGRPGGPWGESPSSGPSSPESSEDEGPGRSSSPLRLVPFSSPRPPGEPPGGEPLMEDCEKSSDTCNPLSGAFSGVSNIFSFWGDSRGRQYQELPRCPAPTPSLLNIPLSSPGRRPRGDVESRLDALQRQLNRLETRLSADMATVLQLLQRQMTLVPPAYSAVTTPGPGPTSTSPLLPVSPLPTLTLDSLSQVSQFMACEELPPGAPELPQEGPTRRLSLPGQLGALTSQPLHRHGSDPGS
Chain of BTK Kinase (Q06187 whole entry): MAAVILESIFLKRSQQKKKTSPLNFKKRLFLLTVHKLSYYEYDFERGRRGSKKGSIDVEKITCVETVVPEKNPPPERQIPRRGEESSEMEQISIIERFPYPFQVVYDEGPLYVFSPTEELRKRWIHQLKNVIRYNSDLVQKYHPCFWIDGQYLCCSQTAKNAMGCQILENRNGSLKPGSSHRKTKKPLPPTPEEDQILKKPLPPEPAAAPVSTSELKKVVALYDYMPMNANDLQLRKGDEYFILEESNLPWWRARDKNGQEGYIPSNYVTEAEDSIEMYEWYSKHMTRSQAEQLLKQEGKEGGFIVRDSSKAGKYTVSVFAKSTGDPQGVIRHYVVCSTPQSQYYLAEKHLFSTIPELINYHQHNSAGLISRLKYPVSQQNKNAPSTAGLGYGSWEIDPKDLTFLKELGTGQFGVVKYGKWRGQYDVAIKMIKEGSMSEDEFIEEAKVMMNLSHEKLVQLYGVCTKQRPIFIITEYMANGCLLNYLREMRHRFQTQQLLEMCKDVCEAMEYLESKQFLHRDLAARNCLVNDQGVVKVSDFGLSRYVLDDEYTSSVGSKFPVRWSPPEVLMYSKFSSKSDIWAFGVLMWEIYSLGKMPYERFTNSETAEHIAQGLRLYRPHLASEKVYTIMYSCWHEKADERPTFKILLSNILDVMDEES

Turning to `C=CC(=O)N1CCC[C@@H](n2nc(-c3ccc(Oc4ccc(Cl)cc4)nc3)c3c(N)ncnc32)C1` [Compound 15e, (R)-1-(3-(4-amino-3-(6-(4-chlorophenoxypyridine)-3-yl)-1H-pyrazolo[3,4-d]pyrimidin-1-yl)piperidin-1-yl)prop-2-en-1-one], in data set [1], the IC50 turned out to be 10.5 nM.
What is called bioavailability is dose-corrected exposure relative to a reference, in per cent. A low value points to poor availability. For orientation: Cmax means the maximum level reached in the sampled fluid or tissue. With `C=CC(=O)N1CCC[C@@H](n2nc(-c3ccc(Oc4ccccc4)cc3)c3c(N)ncnc32)C1` [Ibrutinib, reference compound], in data set [2] (setting [8]), the AUC0-C(ng/h/mL) amounted to 550 ng·h/mL and the AUC0-t (ng/h/mL) was determined as 544 ng·h/mL. Further, in data set [2] (rat, plasma, oral 10 mg/kg vs intravenous 2 mg/kg, mean n = 3), the bioavailability was determined as 12.5%. Further, the peak concentration (Cmax) in data set [2] (rat, plasma, oral (intragastric) 10 mg/kg, mean n = 3) came out at 254 ng/mL.
Consider `C=CC(=O)N1CCC[C@@H](n2nc(-c3ccc(Oc4cccc(F)c4)nc3)c3c(N)ncnc32)C1` [Compound 15c, (R)-1-(3-(4-amino-3-(6-(3-fluorophenoxypyridine)-3-yl)-1H-pyrazolo[3,4-d]pyrimidin-1-yl)piperidin-1-yl)prop-2-en-1-one], for which the IC50 in data set [3] amounted to 2.06 µM; in data set [1], 8.6 nM; in data set [4], 6.23 µM; in data set [5], 4.12 nM; in data set [6], 2.23 nM.
Turning to `C=CC(=O)N1CCC[C@@H](n2nc(-c3ccc(Oc4ccc(C(F)(F)F)cc4)nc3)c3c(N)ncnc32)C1` [Compound 15k, (R)-1-(3-(4-amino-3-(6-(4-trifluoromethylphenoxypyridine)-3-yl)-1H-pyrazolo[3,4-d]pyrimidin-1-yl)piperidin-1-yl)prop-2-en-1-one], the IC50 in data set [1] was 18.2 nM.
`C=CC(=O)N1CC[C@@H](n2nc(-c3ccc(Oc4c(F)cccc4F)nc3)c3c(N)ncnc32)C1` [Compound 23c, (R)-1-(3-(4-amino-3-(6-(2,6-difluorophenoxy)pyridin-3-yl)-1H-pyrazolo[3,4-d]pyrimidin-1-yl)pyrrolidin-1-yl)prop-2-en-1-one] showed an IC50 in data set [1] of 9.7 nM.
On to `C=CC(=O)N1CCC[C@@H](n2nc(-c3ccc(Oc4c(F)cccc4F)nc3)c3c(N)ncnc32)C1` [Compound 15g, (R)-1-(3-(4-amino-3-(6-(2,6-difluorophenoxypyridine)-3-yl)-1H-pyrazolo[3,4-d]pyrimidin-1-yl)piperidin-1-yl)prop-2-en-1-one], for which the IC50 in data set [1] worked out at 7.8 nM.
Regarding `Nc1ncnc2c1c(-c1ccc(Oc3ccccc3)nc1)nn2[C@@H]1CCCN(C(=O)C#CCCO)C1` [Compound 21c, (R)-1-(3-(4-amino-3-(6-phenoxypyridin-3-yl)-1H-pyrazolo[3,4-d]pyrimidin-1-yl)piperidin-1-yl)-5-hydroxypent-2-yn-1-one], the IC50 in data set [7] was 25200 nM.
For the compound `C=CC(=O)N1CCC[C@@H](n2nc(-c3ccc(Oc4ccccc4)nc3C)c3c(N)ncnc32)C1` [Compound 16d, (R)-1-(3-(4-amino-3-(2-methyl-6-phenoxypyridin-3-yl)-1H-pyrazolo[3,4-d]pyrimidin-1-yl)piperidin-1-yl)prop-2-en-1-one], the IC50 in data set [1] was determined as 7.2 nM.
As to `C=CC(=O)N1CCC[C@@H](n2nc(-c3cnc(Oc4ccccc4)cc3F)c3c(N)ncnc32)C1` [Compound 16a, (R)-1-(3-(4-amino-3-(4-fluoro-6-phenoxypyridin-3-yl)-1H-pyrazolo[3,4-d]pyrimidin-1-yl)piperidin-1-yl)prop-2-en-1-one], the figures for the IC50 in data set [1] and in data set [7] were 8.9 nM and 6900 nM, respectively.
For the compound `C=CC(=O)N1CC[C@H](n2nc(-c3ccc(Oc4ccccc4)nc3F)c3c(N)ncnc32)C1` [Compound 24b, (S)-1-(3-(4-amino-3-(2-fluoro-6-phenoxypyridin-3-yl)-1H-pyrazolo[3,4-d]pyrimidin-1-yl)pyrrolidin-1-yl)prop-2-en-1-one], in data set [2] (oral 10 mg/kg), the “oral bioavailability relative to ibrutinib” value is on record as 3.69 times.
Regarding `C=CC(=O)N1CCC[C@@H](n2nc(-c3ccc(Oc4ccc(OC)cc4)nc3)c3c(N)ncnc32)C1` [Compound 15j], the results for the IC50 in data set [1] and in data set [7] were 32.5 nM and 17500 nM, respectively.
`C=CC(=O)N1CCC[C@@H](n2nc(-c3cnc(Oc4ccccc4)cc3C)c3c(N)ncnc32)C1` [Compound 16c, (R)-1-(3-(4-amino-3-(4-methyl-6-phenoxypyridin-3-yl)-1H-pyrazolo[3,4-d]pyrimidin-1-yl)piperidin-1-yl)prop-2-en-1-one]: the IC50 in data set [1] worked out at 6.6 nM.
For `C=CC(=O)N1CCC[C@@H](n2nc(-c3cnc(Oc4ccccc4)c(F)c3)c3c(N)ncnc32)C1` [Compound 16b, (R)-1-(3-(4-amino-3-(5-fluoro-6-phenoxypyridin-3-yl)-1H-pyrazolo[3,4-d]pyrimidin-1-yl)piperidin-1-yl)prop-2-en-1-one], in data set [1], the IC50 came to 8.6 nM.
On the same count and under the same terms, as for `C=CC(=O)N1CCC[C@@H](n2nc(-c3ccc(Oc4cccc(F)c4F)nc3)c3c(N)ncnc32)C1` [Compound 15h, (R)-1-(3-(4-amino-3-(6-(2,3-difluorophenoxypyridine)-3-yl)-1H-pyrazolo[3,4-d]pyrimidin-1-yl)piperidin-1-yl)prop-2-en-1-one], the figure is 3.2 nM; as for `C=CC(=O)N1CC[C@@H](n2nc(-c3ccc(Oc4ccccc4F)nc3)c3c(N)ncnc32)C1` [Compound 23b, (R)-1-(3-(4-amino-3-(6-(2-fluorophenoxy)pyridin-3-yl)-1H-pyrazolo[3,4-d]pyrimidin-1-yl)pyrrolidin-1-yl)prop-2-en-1-one], 9.6 nM; as for `C=CC(=O)N1CC[C@@H](n2nc(-c3ccc(Oc4cccc(F)c4F)nc3)c3c(N)ncnc32)C1` [Compound 23d, (R)-1-(3-(4-amino-3-(6-(2,3-difluorophenoxy)pyridin-3-yl)-1H-pyrazolo[3,4-d]pyrimidin-1-yl)pyrrolidin-1-yl)prop-2-en-1-one], 7.4 nM.
Same read-out and setting: as for `C=CC(=O)N1CCC[C@@H](n2nc(-c3ccc(Oc4ccc(F)c(F)c4)nc3)c3c(N)ncnc32)C1` [Compound 15f, (R)-1-(3-(4-amino-3-(6-(3,4-difluorophenoxypyridine)-3-yl)-1H-pyrazolo[3,4-d]pyrimidin-1-yl)piperidin-1-yl)prop-2-en-1-one], the figure is 25.3 nM.
